Patent publication US20090062222A1, “Methods for Sensitizing Cancer Cells to Inhibitors” (TRUSTEES OF BOSTON UNIVERSITY, priority 2005, published 2009)
Like-named read-outs stand apart in the source and are kept apart here. Where a SMILES comes first, the peptide text is derived from it. The star is where a group is joined. Cbz = O=C(OCc1ccccc1)*

Key:
HSP72 [1] = experiment: HSP72 induction in MM.1S cells (heat shock, proteasome or HSP90 inhibitors), immunoblotting; format: cell-based, human; settings: for inhibition at 10 µM / inhibition at 2 µM: Homo sapiens, MM1.S; for inhibition at 10 µM: read-out: HSP72 inhibition, by Emunin (10 μM), MM.1s; for Inhibition of Hsp72 induction in response to Hsp90 inhibitors radicicol and 17-AAG: MM.1S blocked stronger than PC-3; for Inhibition of HSP72 induction by proteasome inhibitors: VELCADE or MG132 for 16 hours; for inhibition at 2 µM: MM.1s, read-out: HSP72 Inhibition, by NZ28 (2 μM)
HSP72 [2] = experiment: HSP72 induction in PC-3 cells (heat shock, proteasome or HSP90 inhibitors), immunoblotting; format: cell-based, human; settings: for inhibition at 10 µM / inhibition at 2 µM: Homo sapiens; for Inhibition of Hsp72 induction by 17-AAG: PC-3 cells; for inhibition at 2 µM: read-out: HSP72 Inhibition, by NZ28 (2 μM)
PC-3 cells [3] = experiment: Clonogenic survival of PC-3 cells
PC-3 cells [4] = experiment: Apoptosis by PARP cleavage in PC-3 cells
[5] = system: HSP72 induction (CHO cells); experiment: Inhibition of Hsp72 induction by heat shock in CHO cells (immunoblotting); format: cell-based; settings: for Inhibition of Hsp72 induction by heat shock, NCI similarity set: concentrations between 2 and 10 μM
CHO cells = experiment: Toxicity in CHO cells; format: cell-based; settings: for IC50: Cricetulus griseus, read-out: IC50 toxicity
Description: Three of these compounds, including emetine, tubulosine, and NZ28, have significant structural similarity.

CMV-driven GFP = experiment: General protein synthesis: CMV-driven GFP expression in CHO cells; format: cell-based; settings: added 16 hours post-infection, 24 hours, NZ28 2 μM, emunin 10 μM
MM.1S cells = experiment: Apoptosis by PARP cleavage in MM.1S cells
HSP27 = HSP27 induction by proteasome and HSP90 inhibitors in MM.1S cells, immunoblotting; settings: VELCADE or Radicicol, emunin 10 μM, NZ28 2 μM added 5 hours before
[6] = system: HSF1-activated Hsp70B promoter; experiment: HSF1 activity: luciferase reporter under Hsp70B promoter in PC-3 cells after heat shock; settings: added 5 hours before 45° C. 10 min, overnight recovery
[7] = system: luciferase under the tet-off promoter; experiment: General protein synthesis: luciferase induction under tet-off promoter in CHO cells; format: cell-based; settings: 24 hours, NZ28 1 and 2 μM
HSP72 [8] = experiment: HSP72 induction in MEF cells (proteasome or HSP90 inhibitors), immunoblotting; settings: Mus musculus, read-out: HSP72 Inhibition, by NZ28 (2 μM)
HCT-116 cells = experiment: Apoptosis by PARP cleavage in HCT-116 cells; format: cell-based, human
Description: Sensitization to proteasome and Hsp90 inhibitors was seen when we tested additional cancer cells lines. In fact, depletion of HSF1 by treatment with siRNA in either a distinct prostate carcinoma line DU-145 or colon carcinoma HCT-116 cells led to suppression of the heat shock response and increased sensitivity to MG132 and 17-AAG (FIG. 2). […] Depletion of HSF1 in these cells led to a dramatic reduction of the constitutive Hsp72 levels (FIG. 2B) and very strong sensitization to the drugs (FIGS. 2C, 2D, and 2E).

[9] = Cricetulus griseus, CHO cells, heat shock, read-out: IC50 HSP72 Induction Inhibition (CHO cells)
[10] = Cricetulus griseus, CHO cells, heat shock (FIGS. 3A and 3B), read-out: IC50 for inhibition of Hsps induction
[11] = 4 min, Heat Shock 45° C., 4 min
[12] = HSP90 Inhibitor Radicicol 0.8 μM
[13] = Proteasome Inhibitor VELCADE 5 nM

CC(C)C[C@@H](C=O)NC(=O)[C@H](CC(C)C)NC(=O)[C@H](CC(C)C)NC(=O)OCc1ccccc1 [MG132, N-carbobenzoxyl-Leu-Leu-leucinal, reference compound] (Cbz-Leu-Leu-Leu-aldehyde)
HSP72 induction by the drug (HSP72 [1]; MM.1S, 16 hours): Strong induction | Hsp72 induction by the drug (HSP72 [2]; PC-3 RetroQ cells, 24 hours): strongly induced | Sensitivity of si-HSF1 cells, colony forming ability (PC-3 cells [3]; between 0.25 μM and 2 μM): very strong enhancement of sensitivity | PARP cleavage, MG132 alone (PC-3 cells [4]; PC-3, 2 days): approximately 10%

CCC1CN2CCc3cc(OC)c(OC)cc3C2CC1CC1NCCc2cc(O)c(OC)cc21 (stereo not drawn) [Isocephaeline, Emetan-6′-ol, 7′,10,11-trimethoxy-,(1′beta)-]
IC50 [5, 9]: < 0.5 µM | Inhibition of Hsp72 induction by heat shock, NCI similarity set [5]: inhibit Hsp72 induction | IC50 (CHO cells; CHO): < 0.5 µM

COc1cccc2c1C(=O)c1c(O)c3c(c(O)c1C2=O)C[C@@](O)(C(=O)CO)C[C@@H]3O[C@H]1C[C@H](N)[C@H](O)[C@H](C)O1 [doxorubicin, reference compound]
Sensitization to apoptosis by si-HSF1 (PC-3 cells [4]): little or no sensitization

CCC1CN2CCc3cc(OC)c(OC)cc3C2CC1C1c2cc(OC)c(OC)cc2CCN1C(=O)CNC(=O)OC(C)(C)C (stereo not shown) [NZ71]
inhibition at 10 µM ([5]; Cricetulus griseus, 10 min, CHO, Heat Shock 45° C., 10 min, 10 μM, read-out: HSP72 inhibition, by Emunin (10 μM)): 95% | IC50 [5, 10]: 5 µM | IC50 [5, 9]: 5 µM | Inhibition of Hsp72 induction by heat shock, NCI similarity set [5]: inhibit Hsp72 induction | Cell growth inhibition (CHO cells; CHO cells): very little cell growth inhibition | Toxicity (CHO cells; CHO cells): non-toxic | IC50 (CHO cells; CHO cells): > 10 µM | inhibition at 10 µM (HSP72 [1]; [11]): 90% | inhibition at 10 µM (HSP72 [1]; [12]): 90% | inhibition at 10 µM (HSP72 [1]; [13]): 95% | Inhibition of Hsp72 induction in response to Hsp90 inhibitors radicicol and 17-AAG (HSP72 [1]): inhibited induction of Hsp72 | Inhibition of HSP72 induction by proteasome inhibitors (HSP72 [1]; MM.1S): almost completely inhibited HSP72 induction | inhibition at 10 µM (HSP72 [2]; PC-3, 20 min, read-out: HSP72 inhibition, by Emunin (10 μM), PC-3, Heat Shock 45° C., 20 min): 80% | inhibition at 10 µM (HSP72 [2]; PC-3, read-out: HSP72 inhibition, by Emunin (10 μM), PC-3, HSP90 Inhibitor 17-AAG 2 μM): 60% | inhibition at 10 µM (HSP72 [2]; PC-3, read-out: HSP72 inhibition, by Emunin (10 μM), PC-3, Proteasome Inhibitor MG132 1 μM): 80% | Inhibition of Hsp72 induction by 17-AAG (HSP72 [2]): only weak inhibition | Inhibition of GFP expression (CMV promoter) (CMV-driven GFP): No significant inhibition of GFP expression | Colony forming ability, emunin alone (PC-3 cells [3]): did not affect the colony forming ability | Sensitization of si-HSF1 PC-3 cells to MG-132 (PC-3 cells [4]; HSF1-depleted PC-3 cells): no apparent sensitization | PARP cleavage, MG132 and emunin (PC-3 cells [4]; PC-3, 2 days): 50% | Sensitization to radicicol (PC-3 cells [4]; PC-3 cells): little sensitization | PARP cleavage, emunin alone (MM.1S cells): did not cause PARP cleavage | PARP cleavage, emunin and VELCADE together (MM.1S cells; VELCADE 5 nM + 10 μM emunin, overnight): 70% | PARP cleavage, radicicol and emunin (MM.1S cells; radicicol 0.5 μM + 10 μM emunin, 24 hours): about 50% | Inhibition of Hsp27 induction (HSP27): inhibit HSP72 and HSP27 induction | Inhibition of luciferase induction by heat shock (Hsp70B promoter reporter) [6]: about 40%

C=CCNC1=C2C[C@@H](C)C[C@H](OC)[C@H](O)[C@@H](C)/C=C(\C)[C@H](OC(N)=O)[C@@H](OC)/C=C\C=C(/C)C(=O)NC(=CC1=O)C2=O [17-AAG, 17-(allylamino)-17-demethoxygeldanamycin, reference compound]
Hsp72 induction by the drug (HSP72 [2]): strongly induced | Sensitization by si-HSF1, colony forming ability (PC-3 cells [3]; wide range of concentrations): about 5 fold | Increase in PARP cleavage on depletion of HSF1 (PC-3 cells [4]; PC-3, 0.25 μM, 24 hours): 100%

CCC1CN2CCc3cc(OC)c(OC)cc3C2CC1CC1NCCc2c1[nH]c1ccc(OC)cc21 (stereo not shown) [NZ72]
IC50 [5, 9]: 2 µM | Inhibition of Hsp72 induction by heat shock, NCI similarity set [5]: inhibit Hsp72 induction | IC50 (CHO cells; CHO cells): > 2 µM

CCC1=C(CC2NCCc3ccccc32)CC2c3cc(OC)c(OC)cc3CCN2C1 (stereo not shown) [NZ28]
Inhibition of Hsp72 induction, second step of the screening ([5]; 2 μM, CHO cells, 45° C. 10 min, then 6 hours at 37° C.): inhibit Hsp72 induction | inhibition at 2 µM ([5]; Cricetulus griseus, 10 min, CHO, Heat Shock 45° C., 10 min, 2 μM, read-out: HSP72 Inhibition, by NZ28 (2 μM)): 99% | IC50 [5, 10]: 1 µM | IC50 [5, 9]: 1 µM | Cell growth inhibition (CHO cells; CHO cells): slight growth inhibition | Toxicity (CHO cells; CHO cells): did not show toxicity | IC50 (CHO cells; CHO cells): 5 µM | inhibition at 2 µM (HSP72 [1]; [11]): 100% | inhibition at 2 µM (HSP72 [1]; [12]): 90% | inhibition at 2 µM (HSP72 [1]; [13]): 100% | Inhibition of Hsp72 induction in response to Hsp90 inhibitors radicicol and 17-AAG (HSP72 [1]): inhibited induction of Hsp72 | Inhibition of HSP72 induction by proteasome inhibitors (HSP72 [1]; MM.1S): almost completely inhibited HSP72 induction | inhibition at 2 µM (HSP72 [2]; PC-3, 20 min, PC-3, Heat Shock 45° C., 20 min): 85% | inhibition at 2 µM (HSP72 [2]; PC-3, PC-3, HSP90 Inhibitor 17-AAG 2 μM): 70% | inhibition at 2 µM (HSP72 [2]; PC-3, PC-3, Proteasome Inhibitor MG132 1 μM): 90% | Inhibition of Hsp72 induction by 17-AAG (HSP72 [2]): significant but transient | Inhibition of luciferase expression (tet-off promoter) [7]: Neither NZ28 (FIG. 3C) nor emunin (not shown) inhibited luciferase expression | Inhibition of GFP expression (CMV promoter) (CMV-driven GFP): No significant inhibition of GFP expression | Sensitization to radicicol (PARP cleavage) (MM.1S cells; 0.1 μM radicicol 48 h, 2 μM NZ28): similarly sensitized | inhibition at 2 µM (HSP72 [8]): 100% | Inhibition of Hsp27 induction (HSP27): inhibit HSP72 and HSP27 induction | Inhibition of luciferase induction by heat shock (Hsp70B promoter reporter) [6]: about 40%

COc1cc2c(cc1OC)C(CC1=CCN3CCc4ccccc4C3C1)NCC2 (stereo not shown) [NZ60]
IC50 [5, 9]: > 10 µM | IC50 (CHO cells; CHO cells): < 2 µM

C[C@@H]1C[C@H]2O[C@@H]2/C=C\C=C\C(=O)Cc2c(Cl)c(O)cc(O)c2C(=O)O1 [radicicol]
Sensitivity of control cells (HCT-116 cells; HCT-116 control cells): resistant | Sensitivity of si-HSF1 cells (HCT-116 cells; HCT-116 si-HSF1 cells): quite sensitive | PARP cleavage, radicicol alone (MM.1S cells; 0.5 μM, 24 hours): 10%
